According to US6503935B1, “Imidazoles and related compounds as α1A agonists” (Abbott Laboratories, priority 1998, dated 2003):
Where two headings read alike, the source gives them in different places.

Assays:
Anesthetized Dogs [1] = assay: Mean arterial pressure (MAP) in anesthetized dogs; type: in vivo, dog; conditions: iv dose causing a maximum increase in MAP of 20 mm Hg, anesthetized female dogs
Excerpt: (§1) In vivo Functional Assays-Assessment of Intrurethral Pressure (IUP) and Mean Arterial Pressure (MAP) in Anesthetized Dogs
(§2) Female dogs (Marshall Farms, North Rose, N.Y.) greater that 2 years of age and weighing between 12 and 15 kg were used in these studies. At least 2 weeks prior to any agonist dosing, dogs were instrumented for the chronic measurement of arterial blood pressure by implanting a telemetry transducer/transmitter (TA11PA-C40, Data Sciences International, St. Paul, Minn.) into a carotid artery.
(§3) On the test day, dogs fasted since the previous afternoon were pre-anesthetized with thiopental sodium 15 mg/kg i.v. (Pentothal™, Abbott) and intubated. Anesthesia was maintained by allowing the dog to spontaneously breathe a mixture of isoflurane (2.5 to 3 volume %) and oxygen delivered by a Narkomed Standard anesthesia system (North American Drager, Telford, Pa.). An Abbocath-T™ i.v. catheter (18-G, Abbott) was inserted into the cephalic vein for the administration of agonists. A telemetry receiver (RA1310, DataSciences) was placed under the head of each dog and was interfaced to a computerized data acquisition system (Modular Instruments Inc.(MI2), Malvern, Pa.) which allowed for the continuous calibrated recording of arterial blood pressure which was electronically filtered to determine its mean value (MAP).
(§4) Dogs with chronic telemetry implants anesthetized as described above were placed in dorsal recumbency and a balloon catheter was inserted into the urethral orifice and advanced approximately 15 cm until the tip was well inside the bladder. The balloon was then inflated with 1 ml of room air and the catheter slowly withdrawn until resistance (corresponding to the bladder neck) was evident. The balloon was then deflated and the catheter withdrawn an additional 2 cm. The balloon was then reinflated and its catheter port connected to a Gould Statham P23Dd pressure transducer interfaced to a computerized data acquisition system (Modular Instruments, Inc., Malvern, Pa.) for the measurement of intraurethral pressure. Increasing iv doses of test agonists were administered and the maximum effect of each dose on IUP was recorded. The effect of each dose was allowed to return to baseline before the next dose was given.
(§5) From the resulting dose response curve, an ED5 value, for the dose causing a maximum increase in IUP of 5 mm Hg, could be estimated. An ED20 value for the dose causing a maximum increase in MAP of 20 mm Hg could also be estimated. A selectivity ratio of MAP ED20 vs. IUP ED5 was calculated.

Anesthetized Dogs [2] = assay: Intraurethral pressure (IUP) in anesthetized dogs; type: in vivo, dog; conditions: Canis lupus familiaris; iv dose causing a maximum increase in IUP of 5 mm Hg, anesthetized female dogs; read-out: Mean IUP ED5
[3] = target: T1, α1A (rat submaxillary gland) (Rattus norvegicus, UniProt P43140); assay: Radioligand binding with [3H]-prazosin, α1A; conditions: rat submaxillary gland, [3H]-prazosin
T1 construct: α1A (rat submaxillary gland); from tissue; host or cells: rat submaxillary gland
T1 sequence (P43140 1-466): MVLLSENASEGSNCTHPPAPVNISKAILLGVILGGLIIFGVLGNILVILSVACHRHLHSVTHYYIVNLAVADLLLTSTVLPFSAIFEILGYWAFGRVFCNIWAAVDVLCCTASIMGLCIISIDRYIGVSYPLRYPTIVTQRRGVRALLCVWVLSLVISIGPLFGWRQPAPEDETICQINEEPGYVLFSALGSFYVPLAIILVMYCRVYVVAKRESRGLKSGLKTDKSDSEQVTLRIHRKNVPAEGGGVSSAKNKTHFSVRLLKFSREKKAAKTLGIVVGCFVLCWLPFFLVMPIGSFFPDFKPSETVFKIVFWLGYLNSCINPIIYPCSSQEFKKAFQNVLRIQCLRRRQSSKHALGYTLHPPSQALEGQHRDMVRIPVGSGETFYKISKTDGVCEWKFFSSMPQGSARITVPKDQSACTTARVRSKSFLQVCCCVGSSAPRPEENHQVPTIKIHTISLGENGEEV
Description: (§6) For purposes of discussing α1 adrenoceptor subtypes, the IUPHAR convention of using lower case letters to define molecular clones and upper case letters to indicate pharmacologically defined adrenoceptors has been followed. Compounds of formula I were evaluated in radioligand binding assays specific for α1A (rat submaxillary gland), α1b (hamster receptor expressed in mouse fibroblasts) and α1d (rat receptor expressed in mouse fibroblasts) using [^3H]-prazosin as the radioligand as described in Knepper, et al. J. Pharm.

[4] = target: T2, α1b (hamster receptor expressed in mouse fibroblasts) (Mesocricetus auratus, UniProt P18841); assay: Radioligand binding with [3H]-prazosin, α1b; conditions: hamster receptor expressed in mouse fibroblasts, [3H]-prazosin; read-out: Radioligand Binding Ki α1b (Hamster)
T2 construct: expressed in transfected cells; host or cells: mouse fibroblasts
T2 sequence (P18841 1-515): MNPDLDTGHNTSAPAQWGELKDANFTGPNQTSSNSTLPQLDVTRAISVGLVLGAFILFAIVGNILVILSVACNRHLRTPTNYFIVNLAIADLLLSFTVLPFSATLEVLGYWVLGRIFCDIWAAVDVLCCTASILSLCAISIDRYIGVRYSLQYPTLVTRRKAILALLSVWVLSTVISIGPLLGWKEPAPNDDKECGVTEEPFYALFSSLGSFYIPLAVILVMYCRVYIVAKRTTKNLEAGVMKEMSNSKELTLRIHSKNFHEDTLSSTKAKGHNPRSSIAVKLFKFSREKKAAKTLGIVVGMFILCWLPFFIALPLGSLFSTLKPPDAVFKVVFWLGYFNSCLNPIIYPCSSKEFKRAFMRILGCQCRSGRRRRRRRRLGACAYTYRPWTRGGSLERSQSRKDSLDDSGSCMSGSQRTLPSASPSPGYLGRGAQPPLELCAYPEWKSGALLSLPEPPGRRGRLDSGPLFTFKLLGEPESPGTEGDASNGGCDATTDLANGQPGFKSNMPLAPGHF
Description: as §6

[5] = target: T3, α1d (rat receptor expressed in mouse fibroblasts) (Rattus norvegicus, UniProt P23944); assay: Radioligand binding with [3H]-prazosin, α1d; conditions: rat receptor expressed in mouse fibroblasts, [3H]-prazosin; read-out: Radioligand Binding Ki α1d (Rat)
T3 construct: expressed in transfected cells; host or cells: mouse fibroblasts
T3 sequence (P23944 1-561): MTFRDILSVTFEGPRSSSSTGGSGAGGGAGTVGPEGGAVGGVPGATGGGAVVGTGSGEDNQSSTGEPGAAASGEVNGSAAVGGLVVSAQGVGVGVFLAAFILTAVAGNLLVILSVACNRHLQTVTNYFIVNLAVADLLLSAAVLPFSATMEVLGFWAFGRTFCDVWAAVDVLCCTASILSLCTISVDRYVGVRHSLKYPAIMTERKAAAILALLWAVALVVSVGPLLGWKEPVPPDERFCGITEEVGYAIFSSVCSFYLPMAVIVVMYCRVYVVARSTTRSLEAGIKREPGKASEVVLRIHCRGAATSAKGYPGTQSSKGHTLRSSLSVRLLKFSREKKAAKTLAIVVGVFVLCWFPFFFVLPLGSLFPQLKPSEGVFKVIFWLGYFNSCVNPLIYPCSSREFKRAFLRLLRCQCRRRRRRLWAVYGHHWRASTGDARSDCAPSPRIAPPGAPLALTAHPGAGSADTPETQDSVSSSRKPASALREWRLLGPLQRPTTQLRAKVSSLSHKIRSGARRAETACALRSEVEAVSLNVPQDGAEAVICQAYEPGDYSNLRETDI
Description: as §6

α1B (rat spleen) = target: T4, α1B (rat spleen) (Rattus norvegicus, UniProt P15823); assay: Agonist contraction of smooth muscle tissue, rat spleen; type: cell-based; conditions: rat spleen; read-out: Agonist Tissue Response (pD2) α1B (rat spleen) (converted)
T4 construct: α1B (rat spleen) and α1D (rat aorta) receptors; from tissue; host or cells: rat spleen
T4 sequence (P15823 1-515): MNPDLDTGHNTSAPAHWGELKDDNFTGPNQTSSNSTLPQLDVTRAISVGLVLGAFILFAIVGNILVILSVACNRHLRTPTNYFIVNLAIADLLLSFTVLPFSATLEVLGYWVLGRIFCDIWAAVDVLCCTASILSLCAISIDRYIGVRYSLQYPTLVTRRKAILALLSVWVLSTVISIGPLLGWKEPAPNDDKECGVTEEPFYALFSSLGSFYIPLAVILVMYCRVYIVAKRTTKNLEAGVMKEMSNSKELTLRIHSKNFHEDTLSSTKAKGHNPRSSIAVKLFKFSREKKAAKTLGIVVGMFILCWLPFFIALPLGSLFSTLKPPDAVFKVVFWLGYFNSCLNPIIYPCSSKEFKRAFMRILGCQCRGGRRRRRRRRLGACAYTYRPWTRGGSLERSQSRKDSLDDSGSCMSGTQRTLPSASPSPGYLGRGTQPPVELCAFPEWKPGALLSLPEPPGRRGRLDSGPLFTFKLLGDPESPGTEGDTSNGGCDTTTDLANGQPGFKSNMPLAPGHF

α1D (rat aorta) = target: T5, α1D (rat aorta) (Rattus norvegicus, UniProt P23944); assay: Agonist contraction of smooth muscle tissue, rat aorta; type: cell-based; conditions: rat aorta, endothelium removed; read-out: Agonist Tissue Response (pD2) α1D (rat aorta) (converted)
T5 construct: α1B (rat spleen) and α1D (rat aorta) receptors; from tissue; host or cells: rat aorta strips, endothelium removed
T5 sequence (P23944 1-561): T3 sequence (P23944 1-561)

α1A (rabbit urethra) = target: T6, α1A (rabbit urethra) (Oryctolagus cuniculus, UniProt O02824); assay: Agonist contraction of smooth muscle tissue, rabbit urethra; type: cell-based; conditions: rabbit urethra; read-out: Agonist Tissue Response (pD2) α1A (rab ureth) (converted)
T6 construct: tested for α1A functional activity using rabbit urethra; from tissue; host or cells: rabbit urethra
T6 sequence (O02824 1-466): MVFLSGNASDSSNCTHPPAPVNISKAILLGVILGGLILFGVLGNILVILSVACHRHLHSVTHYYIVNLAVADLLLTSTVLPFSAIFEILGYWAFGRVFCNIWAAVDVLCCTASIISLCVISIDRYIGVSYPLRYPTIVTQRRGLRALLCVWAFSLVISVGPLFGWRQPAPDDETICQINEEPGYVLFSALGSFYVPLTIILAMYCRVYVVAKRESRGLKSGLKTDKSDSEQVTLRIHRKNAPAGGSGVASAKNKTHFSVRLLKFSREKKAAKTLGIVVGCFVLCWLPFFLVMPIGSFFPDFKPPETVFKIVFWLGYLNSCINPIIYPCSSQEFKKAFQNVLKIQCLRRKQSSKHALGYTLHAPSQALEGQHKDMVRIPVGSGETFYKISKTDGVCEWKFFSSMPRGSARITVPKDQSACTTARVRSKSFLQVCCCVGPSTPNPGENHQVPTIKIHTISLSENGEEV
Description: Most of the compounds were tested for α1A functional activity using rabbit urethra as follows. Female New Zealand white rabbits (2.0-3.5 Kg) were sedated with CO2 and decapitated. […] Subsequent experimental conditions were as described above for the other tissues. Agonist concentration response curves were cumulative except for the vas deferens assay in which the transient response made such measurements impractical.

Anesthetized Dogs [6] = assay: Intraurethral pressure (IUP) in anesthetized dogs; type: in vivo, dog; conditions: iv, anesthetized female dogs
Excerpt: as §1, §2, §3, §4, §5

Structure (SMILES) | Mean MAP ED20 (Anesthetized Dogs [1]) [nmol/kg] | ED (5 mmHg IUP increase) (Anesthetized Dogs [2]) [µmol/kg] | Ki [3] [µM] | Ki [4] [µM] | Ki [5] [µM] | EC50 (α1B (rat spleen)) [µM] | EC50 (α1D (rat aorta)) [µM] | EC50 (α1A (rabbit urethra)) [µM] | ED (5 mmHg IUP increase) (Anesthetized Dogs [6]; Canis lupus familiaris, iv dose causing a maximum increase in IUP of 5 mm Hg, read-out: Mean IUP ED5) [µmol/kg] | Mean Selectivity Ratio MAP ED20/IUP ED5 (Anesthetized Dogs [6])
CS(=O)(=O)Nc1cccc2c1CCC[C@H]2c1c[nH]cn1 [Example 9, (+)-N-[(5R)-5-(1H-imidazol-4-yl)-5,6,7,8-tetrahydro-1-naphthalenyl]methanesulfonamide] | 48.7 | 0.0204 | – | – | – | – | – | – | – | –
Cl.Cn1cnc(C2CCCc3c(NS(C)(=O)=O)cccc32)c1 (stereo not drawn) [Example 14, N-[5,6,7,8-tetrahydro-5-(1-methyl-1H-imidazol-4-yl)-1-naphthalenyl]methanesulfonamide, hydrochloride] | >1000 | > 1 | 0.277 | 2.02 | 1.04 | > 1000 | > 1000 | – | – | –
CCS(=O)(=O)Nc1cccc2c1CCC2c1c[nH]cn1.O=C(O)/C=C\C(=O)O (stereo not drawn) [Example 39, N-[1-(1H-imidazol4-yl)-2,3-dihydro-1H-inden-4-yl]ethanesulfonamide, maleate] | 5.6 | 0.0044 | – | – | – | – | – | – | – | –
O=C(O)/C=C\C(=O)O.O=S(=O)(CC(F)(F)F)Nc1cccc2c1CCCC2c1c[nH]cn1 (stereo not drawn) [Example 20, N-[5,6,7,8-tetrahydro-5-(1H-imidazol-4-yl)-1-naphthalenyl]-2,2,2-trifluoroethanesulfonamide, maleate] | 885 | – | 0.253 | – | – | > 1000 | > 1000 | 2.82 | 0.209 | 6.1
CS(=O)(=O)Nc1cccc2c1CCC[C@@H]2c1c[nH]cn1 [Example 10, (−)-N-[(5S)-5-(1H-imidazol-4-yl)-5,6,7,8-tetrahydro-1-naphthalenyl]methanesulfonamide] | >300 | > 0.3 | – | – | – | – | – | – | – | –
CCS(=O)(=O)Nc1cccc(Cc2c[nH]cn2)c1.O=C(O)/C=C\C(=O)O [Example 30, N-[3-(1H-imidazol-4-ylmethyl)phenyl]ethanesulfonamide, maleate] | 80.5 | 0.0121 | 0.135 | 0.882 | 0.279 | 0.692 | > 1000 | – | – | –
CC(=O)Nc1cccc2c1CCCC2c1c[nH]cn1.O=C(O)/C=C\C(=O)O (stereo not drawn) [Example 16, N-[5,6,7,8-tetrahydro-5-(1H-imidazol-4-yl)-1-naphthalenyl]acetamide, maleate] | 220 | 0.0684 | – | – | – | – | – | – | – | –
CS(=O)(=O)Nc1cccc2c1OCCC2c1c[nH]cn1.O=C(O)/C=C\C(=O)O (stereo not drawn) [Example 19, N-[4-(1H-imidazol-4-yl)-3,4-dihydro-2H-chromen-8-yl]methanesulfonamide, maleate] | – | 0.0671 | – | – | – | – | – | – | – | –
